The source of these data is patent US20120190687A1, “Pyrazinylpyrazoles” (Bayer CropScience Ag, priority 2009, published 2012).

Series [1] deals with Boophilus microplus. The series is described as follows: Boophilus microplus test (BOOPMI injection). In kind it is in vivo. The following applies: 20 μg/animal, injection into abdomen, after 7 days, laying of fertile eggs. As to the method: Boophilus microplus Test (BOOPMI Injection) Solvent: Dimethyl Sulphoxide To prepare an appropriate active ingredient formulation, 10 mg of active ingredient are mixed with 0.5 ml of solvent and the concentrate is diluted with solvent to the desired concentration. The active ingredient solution is injected into the abdomen (Boophilus microplus), and the animals are transferred into dishes and stored in a climate-controlled room. The efficacy is assessed by laying of fertile eggs. After 7 days, the efficacy in % is determined. 100% means that none of the ticks has laid any fertile eggs.

Series [2] has as its system Lucilia cuprina larvae. Description: Lucilia cuprina test (LUCICU). In kind it is in vivo. The following applies: 100 ppm, treated horse meat, after 2 days. As to the method:
Lucilia cuprina Test (LUCICU) Solvent: Dimethyl Sulphoxide To prepare an appropriate active ingredient formulation, 10 mg of active ingredient are mixed with 0.5 ml of dimethyl sulphoxide and the concentrate is diluted with water to the desired concentration. Vessels containing horse meat treated with the active ingredient preparation of the desired concentration are populated with about 20 Lucilia cuprina larvae. After 2 days, the kill in % is determined. 100% means that all of the larvae have been killed; 0% means that none of the larvae have been killed.

Series [3] concerns Phaedon cochleariae. The series is described as follows: Phaedon test (PHAECO spray treatment). In kind it is in vivo. The conditions noted are these: 500 g/ha, Chinese cabbage discs, after 7 days. As to the method: Phaedon Test ([…] Spray Treatment) Solvent: 78.0 parts by weight of acetone • • 1.5 parts by weight of dimethylformamide Emulsifier: 0.5 part by weight of alkylaryl polyglycol ether To prepare an appropriate active ingredient preparation, 1 part by weight of active ingredient is mixed with the stated amounts of solvent and emulsifier, and the concentrate is diluted with emulsifier-containing water to the desired concentration. Discs of Chinese cabbage (Brassica pekinensis) are sprayed with an active ingredient preparation of the desired concentration and, after drying, populated with larvae of the mustard beetle (Phaedon cochleariae). After 7 days, the efficacy in % is determined. 100% means that all beetle larvae have been killed; 0% means that none of the beetle larvae have been killed.

Series [4] has as its system Tetranychus urticae. Description: Tetranychus test, OP-resistant (TETRUR spray treatment). The class given is in vivo. The conditions noted are these: bean leaf discs, after 6 days. Here is the method: Tetranychus Test, OP-resistant (TETRUR Spray Treatment)
Solvent: 78.0 parts by weight of acetone • • 1.5 parts by weight of dimethylformamide
Emulsifier: 0.5 part by weight of alkylaryl polyglycol ether
To prepare an appropriate active ingredient preparation, 1 part by weight of active ingredient is mixed with the stated amounts of solvent and emulsifier, and the concentrate is diluted with emulsifier-containing water to the desired concentration. Discs of bean leaves (Phaseolus vulgaris) infested by all stages of the red spider mite (Tetranychus urticae) are sprayed with an active ingredient preparation of the desired concentration. After 6 days, the efficacy in % is determined. 100% means that all spider mites have been killed; 0% means that none of the spider mites have been killed.

The nature of series [5]: logP by reversed-phase HPLC (EEC Directive 79/831 Annex V.A8). The class given is physicochemical. An excerpt:
[table] The calibration is effected with unbranched alkan-2-ones (having 3 to 16 carbon atoms) with known log P values (log P values determined on the basis of the retention times by linear interpolation between two successive alkanones).

The test system of series [6] is Spodoptera frugiperda. The series is described as follows: Spodoptera frugiperda test (SPODFR spray treatment). In kind it is in vivo. The conditions noted are these: 500 g/ha, maize leaf discs, after 7 days. As to the method: Spodoptera frugiperda Test (SPODFR Spray Treatment) Solvent: 78.0 parts by weight of acetone • • 1.5 parts by weight of dimethylformamide Emulsifier: 0.5 part by weight of alkylaryl polyglycol ether To prepare an appropriate active ingredient preparation, 1 part by weight of active ingredient is mixed with the stated amounts of solvent and emulsifier, and the concentrate is diluted with emulsifier-containing water to the desired concentration. Discs of maize leaves (Zea mays) are sprayed with an active ingredient preparation of the desired concentration and, after drying, populated with caterpillars of the armyworm (Spodoptera frugiperda). After 7 days, the efficacy in % is determined. 100% means that all caterpillars have been killed; 0% means that none of the caterpillars have been killed.

The mark [7] stands for this setting: * LC-MS, acidic range, pH 2.7, 0.1% aqueous formic acid / acetonitrile.
The mark [8] stands for this setting: ** acidic range, pH 2.3, 0.1% aqueous phosphoric acid / acetonitrile.

For `CCC(OC)c1nn(-c2nccnc2OC)c(N)c1-c1ccc(Cl)c(Cl)c1` (centres unmarked) [Ex. 3], the efficacy in series [1], in series [3] and in series [4] (500 g/ha) was 100% throughout. Further, the “efficacy (kill)” value in series [2] was 100%.

`CC(C)Oc1nccnc1-n1nc(C(F)(F)F)c(-c2cc(Cl)cc(C(F)(F)F)c2)c1N` [Ex. 13]: in series [5] (setting [7]), the “log P” value is 4.84*. Besides, the efficacy in series [3] was 83%.

Consider `Cc1nccnc1-n1nc(C(F)(F)F)c(-c2cc(Cl)cc(C(F)(F)F)c2)c1N` [Ex. 23], for which the “log P” value in series [5] (setting [7]) is reported as 4.32*. For the same compound, the efficacy in series [3] and in series [4] (500 g/ha) was 100% in each case.

For the compound `N#Cc1nccnc1-n1nc(C(F)(F)F)c(-c2cc(Cl)cc(C(F)(F)F)c2)c1N` [Ex. 27], in series [5] (setting [7]), the “log P” value was 3.93*. In series [3], this compound registered an efficacy of 100%.

On to `CSc1nccnc1-n1nc(C(F)(F)F)c(-c2cc(Cl)cc(C(F)(F)F)c2)c1N` [Ex. 28], for which the “log P” value in series [5] (setting [7]) was 4.9*. Also, the efficacy in series [1], in series [3] and in series [6] was 100% in each case. The “efficacy (kill)” value in series [2] is reported as 100%.

Regarding `CCOc1nccnc1-n1nc(C(F)(F)F)c(-c2cc(Cl)cc(C(F)(F)F)c2)c1NCc1ccccc1` [Ex. 35], the “log P” value in series [5] (setting [7]) is listed as 5.62*. In series [4] (500 g/ha), this compound displayed an efficacy of 90%.

In the case of `CCOc1nccnc1-n1nc(C(F)(F)F)c(-c2cc(Cl)cc(C(F)(F)F)c2)c1N(Cc1ccc(OC)cc1)Cc1ccc(OC)cc1` [Ex. 43], in series [5] (setting [7]), the “log P” value was 6.57*. The efficacy in series [3] and in series [6] was 100% in each case.

Turning to `Nc1c(-c2cc(Cl)cc(C(F)(F)F)c2)c(C(F)(F)F)nn1-c1nccnc1-n1ccnc1` [Ex. 44], the “log P” value in series [5] (setting [7]) is given as 2.76*. Also, the efficacy in series [3] and in series [6] was 100% in each case.

Consider `COc1nccnc1-n1nc(C(F)(F)C(F)F)c(-c2cc(Cl)c3c(c2)OCO3)c1N` [Ex. 65], for which the “log P” value in series [5] (setting [7]) is reported as 3.18*. The values for the efficacy in series [3], in series [6] and in series [4] (500 g/ha) were 100%, 100% and 90%, respectively.

Take `COc1nccnc1-n1nc(C(F)(F)C(F)F)c(-c2cc(Cl)c3c(c2)CCO3)c1N` [Ex. 66]: the “log P” value in series [5] (setting [7]) is 3.22*. Besides, the efficacy in series [3] was found to be 100%; in series [6], 100%; in series [4] (500 g/ha), 90%.

As for `COc1nccnc1-n1nc(C(F)(F)F)c(-c2cc(Cl)c(Cl)c(C(F)(F)F)c2)c1N` [Ex. 86], in series [5] (setting [8]), the “log P” value is reported as 4.47**. In addition, the efficacy in series [3] and in series [6] was 100% throughout.

In series [4] (500 g/ha), `C=C(C)CNc1c(-c2cc(Cl)cc(C(F)(F)F)c2)c(C(F)(F)F)nn1-c1nccnc1OC` [Ex. 96] yielded an efficacy of 100%.

As to `COc1nccnc1-n1nc(C(F)(F)C(F)F)c(-c2cc(Cl)c(Cl)c(Cl)c2)c1N` [Ex. 116], the “log P” value in series [5] (setting [8]) was 4.37**. The results for the efficacy in series [3], in series [6] and in series [4] (500 g/ha) were 100%, 100% and 90%, respectively.

As for `COc1nccnc1-n1nc(C(F)(F)F)c(-c2cc(Cl)c(N(C)C)c(Cl)c2)c1N` [Ex. 121], in series [5] (setting [7]), the “log P” value is listed as 4.46*. Moreover, the efficacy in series [3] is reported as 100%; in series [6], 100%; in series [4] (100 g/ha), 80%.

For the compound `COc1nccnc1-n1nc(C(F)(F)F)c(-c2ccc(N(C)C)c(Cl)c2)c1N` [Ex. 122], the “log P” value in series [5] (setting [7]) is listed as 3.19*. In addition, the efficacy in series [3] and in series [6] was 100% throughout.

For `COc1nccnc1-n1nc(C(F)(F)F)c(-c2cc(Cl)c(N(C)C)c(C(F)(F)F)c2)c1N` [Ex. 123], the “log P” value in series [5] (setting [7]) was 4.72*. The figures for the efficacy in series [3], in series [6] and in series [4] (500 g/ha) were 100%, 100% and 80%, respectively.

For `COc1nccnc1-n1nc(C(F)(F)F)c(-c2cc(F)c(OC)c(Cl)c2)c1N` [Ex. 124], the “log P” value in series [5] (setting [7]) was 3.47*; in series [5] (*** LC-MS, neutral range, pH 7.8, 0.001 molar aqueous ammonium hydrogencarbonate / acetonitrile), 3.5***;. Further, the efficacy in series [3] amounted to 100%; in series [6] it was 100%; in series [4] (500 g/ha) it was 90%.

Take `COc1cc(-c2c(C(F)(F)F)nn(-c3nccnc3OC)c2N)ccc1OCC(F)(F)F` [Ex. 125]: the “log P” value in series [5] (setting [7]) is recorded as 3.07*. Further, the efficacy in series [3] was determined as 100%; in series [4] (500 g/ha), 90%.

As to `CCOc1cc(-c2c(C(F)(F)F)nn(-c3nccnc3OC)c2N)ccc1OCC(F)(F)F` [Ex. 127], in series [5] (setting [7]), the “log P” value is 3.68*. The efficacy is listed as 100% in series [3] and 90% in series [4] (500 g/ha).

As to `Nc1c(-c2cc(Cl)cc(C(F)(F)F)c2)c(C(F)(F)F)nn1-c1nccnc1C(F)(F)F` [Ex. 130], in series [5] (setting [7]), the “log P” value is 4.57*. Moreover, the efficacy in series [3] and in series [6] was 100% throughout.

Consider `COc1cc(-c2c(C(F)(F)F)nn(-c3nccnc3OC)c2N)cc(Cl)c1OCC(F)(F)F` [Ex. 134], for which the “log P” value in series [5] (setting [7]) is on record as 3.88*. Besides, the efficacy in series [3] and in series [6] was 100% each time.

`CCOc1cc(-c2c(C(F)(F)F)nn(-c3nccnc3OC)c2N)cc(Br)c1OCC(F)(F)F` [Ex. 140]: the “log P” value in series [5] (setting [7]) was 4.3*. Further, the efficacy in series [3] and in series [6] was 100% each time.

Regarding `CCOc1cc(-c2c(C(F)(F)F)nn(-c3nccnc3OC)c2N)cc(Cl)c1OCC(F)(F)F` [Ex. 144], in series [5] (setting [7]), the “log P” value is listed as 4.21*. The efficacy in series [3], in series [6] and in series [4] (500 g/ha) was 100% in each case.

With `COc1nccnc1-n1nc(C(F)(F)F)c(-c2ccc3c(c2)CCC(C)(C)O3)c1N` [Ex. 145], the “log P” value in series [5] (setting [7]) is reported as 3.68*. In series [3], this compound showed an efficacy of 100%.

For the compound `COc1cc(-c2c(C(F)(F)C(F)F)nn(-c3nccnc3OC)c2N)cc(C(F)(F)F)c1OC` [Ex. 157], the “log P” value in series [5] (setting [7]) is reported as 3.58*. In addition, the efficacy in series [3], in series [6] and in series [4] (500 g/ha) was 100% throughout.

For `COc1nccnc1-n1nc(C(F)(F)F)c(-c2cc(F)c(Cl)cc2Cl)c1N` [Ex. 166], in series [5] (setting [7]), the “log P” value is listed as 3.66*. In addition, the efficacy worked out at 100% in series [3] and 90% in series [4] (500 g/ha).

Regarding `COc1nccnc1-n1nc(C(F)(F)F)c(-c2cc3c(c(C(F)(F)F)c2)OCCO3)c1N` [Ex. 173], in series [5] (setting [7]), the “log P” value is 3.27*. The efficacy in series [3] is 100%; in series [6], 100%; in series [4] (500 g/ha), 90%.

Consider `COc1nccnc1-n1nc(C(F)(F)F)c(-c2cc(Cl)c(Cl)c([S+]([O-])CC(F)(F)F)c2)c1N` (centres unmarked) [Ex. 182], for which the “log P” value in series [5] (setting [7]) is 3.69*.

As to `C=C(C)CN(CC(=C)C)c1c(-c2cc(Cl)cc(C(F)(F)F)c2)c(C(F)(F)F)nn1-c1nccnc1OC` [compound 104], in series [5] (setting [7]), the “log P” value is on record as 5.22*.

`COc1nccnc1-n1nc(C(F)(F)F)c(-c2cc(Cl)cc(C(F)(F)F)c2)c1N(C)C` [compound 107, 1-(3-methoxypyrazin-2-yl)-4-[3-chloro-5-(trifluoromethyl)phenyl]-3-(trifluoromethyl)-1H-pyrazole-5-dimethylamine]: the chromatographic logP in series [5] (reversed-phase HPLC column, * LC-MS, acidic range, pH 2.7, 0.1% aqueous formic acid / acetonitrile, read-out: log P) turned out to be 5.11. In series [3], this compound displayed an efficacy of 83%.
